Laboratory results from US20250320206A1, “STAT6 DEGRADERS” (Gilead Sciences, Inc., priority 2024, published 2025).

How the values were obtained:
[1] = test system: Eotaxin-3 release in human whole blood stimulated with IL-4; assay: Human Whole Blood Eotaxin-3 Assay (IL-4 stimulated eotaxin-3 release); format: cell-based; settings: IL-4 stimulation, 48 h, values given for compounds with >80% Emax, geometric mean
Outline: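 Eotaxin-3 (CCL26) release measured by MSD kit in plasma supernatant after 48 h IL-4 stimulation ([…]) of human whole blood. Compounds added in triplicate 4-fold dilutions 2 h before stimulation; 0.5% DMSO final, 37° C, 5% CO2.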

STAT6 = biological target: T1, STAT6 (Homo sapiens, UniProt P42226); assay: Stat6 Degrader Assay (HiBiT based, HeLa LgBiT clone 4.14); format: cell-based; settings: HeLa LgBiT clone 4.14 HiBiT-STAT6, 4-24 h incubation; values given for compounds with >80% Emax; geometric mean; read-out: STAT6 degradation DC50
T1 construct: These cells express endogenous STAT6; host or cells: HeLa LgBiT clone 4.14
T1 sequence (P42226 1-847): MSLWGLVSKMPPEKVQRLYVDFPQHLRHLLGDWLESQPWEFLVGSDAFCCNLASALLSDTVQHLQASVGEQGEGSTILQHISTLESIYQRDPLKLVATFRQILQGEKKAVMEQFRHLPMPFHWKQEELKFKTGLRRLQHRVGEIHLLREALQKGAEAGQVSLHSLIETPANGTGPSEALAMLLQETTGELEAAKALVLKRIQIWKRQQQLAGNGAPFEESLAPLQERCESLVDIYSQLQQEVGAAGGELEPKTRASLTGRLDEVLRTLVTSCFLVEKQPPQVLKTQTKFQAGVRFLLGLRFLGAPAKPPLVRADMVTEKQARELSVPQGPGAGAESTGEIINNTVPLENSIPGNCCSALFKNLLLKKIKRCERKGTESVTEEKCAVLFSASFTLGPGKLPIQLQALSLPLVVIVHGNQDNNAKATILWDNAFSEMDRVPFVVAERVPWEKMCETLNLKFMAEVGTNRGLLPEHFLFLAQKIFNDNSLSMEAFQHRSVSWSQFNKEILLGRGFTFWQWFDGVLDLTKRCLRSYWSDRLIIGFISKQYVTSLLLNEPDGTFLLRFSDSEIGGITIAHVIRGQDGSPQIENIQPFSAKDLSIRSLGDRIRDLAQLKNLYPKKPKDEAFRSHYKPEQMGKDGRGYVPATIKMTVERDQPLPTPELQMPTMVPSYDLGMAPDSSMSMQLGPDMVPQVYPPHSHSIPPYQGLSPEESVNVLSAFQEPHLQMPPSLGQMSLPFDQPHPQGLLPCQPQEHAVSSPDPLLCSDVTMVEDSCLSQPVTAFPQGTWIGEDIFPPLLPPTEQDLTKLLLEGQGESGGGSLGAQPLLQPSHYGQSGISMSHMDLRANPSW
Outline: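 Luminescence from HiBiT-STAT6 complementing stably expressed LgBiT in HeLa clone 4.14 reports remaining STAT6 protein. Cells (5000/well) exposed to compound for 4-24 h at 37° C; read 0.5 h after Nano-Glo addition. 100% degradation window set with 50 μM terfenadine; percent degradation plotted against concentration.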

EC50 [1]	DC50 (STAT6)	Compound
1.3 nM	0.2 nM	CNc1cc(=O)n(-c2ccnc3c2cc([C@H](C)N2CC=C(c4c(C)cc(C(=O)N(C)c5ccc(C6CCN(Cc7ccc8c(c7)C(C)(C)C(=O)N8C7CCC(=O)NC7=O)CC6)cc5)cc4F)CC2)n3C)cc1F (stereo partly drawn) [Example 3u233, N-(4-(1-((1-(2,6-dioxopiperidin-3-yl)-3,3-dimethyl-2-oxoindolin-5-yl)methyl)piperidin-4-yl)phenyl)-3-fluoro-4-(1-((S)-1-(4-(5-fluoro-4-(methylamino)-2-oxopyridin-1 (2H)-yl)-1-methyl-1H-pyrrolo[2,3-b]pyridin-2-yl)ethyl)-1,2,3,6-tetrahydropyridin-4-yl)-N,5-dimethylbenzamide]
1.1 nM	1.4 nM	CNc1ccn(-c2ccnc3c2cc([C@H](C)N2CC=C(c4c(C)cc(C(=O)N5CCC(CN6CCN(c7cc8c(cc7F)n([C@H]7CCC(=O)NC7=O)c(=O)n8C)CC6)CC5)cc4F)CC2)n3C)c(=O)c1 (single isomer, unassigned) [Example 3u307]
24.1 nM	13 nM	CNc1cc(=O)n(-c2ccnc3c2cc([C@H](C)N2CC=C(c4c(F)cc(C(=O)N5CCC(CN6CCN(c7ccc8c(c7)C7(CC7)C(=O)N8C7CCC(=O)NC7=O)CC6)CC5)cc4F)CC2)n3C)cc1F (stereo partly drawn) [Example 3u300, 3-(5′-(4-((1-(3,5-difluoro-4-(1-((S)-1-(4-(5-fluoro-4-(methylamino)-2-oxopyridin-1 (2H)-yl)-1-methyl-1H-pyrrolo[2,3-b]pyridin-2-yl)ethyl)-1,2,3,6-tetrahydropyridin-4-yl)benzoyl)-piperidin-4-yl)methyl)piperazin-1-yl)-2′-oxospiro[cyclopropane-1,3′-indolin]-1′-yl)piperidine-2,6-dione]
10.1 nM	10.2 nM	CNc1ccn(-c2ccnc3c2cc(CN2CCC(c4c(F)cc(C(=O)N5CCC(CN6CCN(Cc7cc8c(cc7F)N([C@@H]7CCC(=O)NC7=O)C(=O)C87CC7)CC6)CC5)cc4F)CC2)n3C)c(=O)c1 (single isomer, unassigned) [Example 3u44]
